Test results reported in ChEMBL document CHEMBL1201862, “PubChem BioAssay data set” (2004).
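Tested at 5 concentrations; 48 h exposure; 96-well plates; endpoints linearly interpolated, else capped at highest concentration. At the GI50, growth is halved.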 Activity calls are given as the source filed them. No stated cut-off is given here; in the data, active = GI50 up to about 1.1 µM and inactive = higher.

How the values were obtained:
Assay in all cases: inhibition of tumour cell growth, NCI panel, 48 h
A549 = tested on: A549
CAKI-1 = tested on: CAKI-1
CCRF-CEM = tested on: CCRF-CEM
HCT-116 = tested on: HCT-116
HCT-15 = tested on: HCT-15
K562 = tested on: K562
KM12 = tested on: KM12
LOX IMVI = tested on: LOX IMVI
M14 = tested on: M14
MCF7 = tested on: MCF7
MDA-MB-231 = tested on: MDA-MB-231
MOLT-4 = tested on: MOLT-4
NCI-H226 = tested on: NCI-H226
NCI-H23 = tested on: NCI-H23
OVCAR-5 = tested on: OVCAR-5
PC-3 = tested on: PC-3
SK-MEL-5 = tested on: SK-MEL-5
SNB-19 = tested on: SNB-19
UACC-62 = tested on: UACC-62
HCC 2998 = tested on: HCC 2998

Row | Structure (SMILES) | GI50 (A549) | GI50 (CAKI-1) | GI50 (CCRF-CEM) | GI50 (HCT-116) | GI50 (HCT-15) [µM] | GI50 (K562) | GI50 (KM12) | GI50 (LOX IMVI) | GI50 (M14) | GI50 (MCF7) | GI50 (MDA-MB-231) | GI50 (MOLT-4) | GI50 (NCI-H226) | GI50 (NCI-H23) | GI50 (OVCAR-5) | GI50 (PC-3) | GI50 (SK-MEL-5) | GI50 (SNB-19) | GI50 (UACC-62) | GI50 (HCC 2998)
1 | N#Cc1c(C#N)c(-c2ccccc2)n(-c2ccccc2)c1N | > 100 µM (inactive) | > 100 µM (inactive) | 87.5 µM (inactive) | 5.51 µM (inactive) | > 100 | 19.7 µM (inactive) | > 100 µM (inactive) | > 100 µM (inactive) | > 100 µM (inactive) | > 100 µM (inactive) | > 100 µM (inactive) | 60.3 µM (inactive) | 72.4 µM (inactive) | 80.7 µM (inactive) | > 100 µM (inactive) | > 100 µM (inactive) | 18.9 µM (inactive) | 30.4 µM (inactive) | 69.5 µM (inactive) | 
2 | COCc1nc2c(OC)c(-c3nc4ccc(N5CCN(C)CC5)cc4[nH]3)cc(OC)c2[nH]1 | 48.9 µM (inactive) | 41.7 µM (inactive) | 27.5 µM (inactive) | 30.8 µM (inactive) | 56.1 | 38.8 µM (inactive) | 28.1 µM (inactive) | 18.7 µM (inactive) | 17.4 µM (inactive) | 35.6 µM (inactive) | 30.2 µM (inactive) | 41.1 µM (inactive) | > 100 µM (inactive) | 83.4 µM (inactive) | > 100 µM (inactive) | 42.9 µM (inactive) | 22.2 µM (inactive) | 48.8 µM (inactive) | 80.7 µM (inactive) | 
3 | COc1cc(CC2C(=O)OCC2Cc2ccc(OC)c(OC)c2)ccc1O (stereo not drawn) | > 71.8 µM (inactive) | > 100 µM (inactive) |  | > 100 µM (inactive) | > 100 |  | > 100 µM (inactive) | 30.8 µM (inactive) | > 100 µM (inactive) | > 100 µM (inactive) | 74.3 µM (inactive) | 4.76 µM (inactive) | > 100 µM (inactive) | 10.9 µM (inactive) | > 100 µM (inactive) | 99.1 µM (inactive) | 4.42 µM (inactive) | > 100 µM (inactive) | > 100 µM (inactive) | 
4 | O=C(/C=C1/Nc2ccc([N+](=O)[O-])cc2N/C1=C/C(=O)c1ccc(Cl)cc1)c1ccc(Cl)cc1 | > 100 µM (inactive) | > 100 µM (inactive) | 34.4 µM (inactive) | 15 µM (inactive) | 24.2 | 31.9 µM (inactive) | > 100 µM (inactive) |  | > 100 µM (inactive) | 49.5 µM (inactive) | > 100 µM (inactive) | > 100 µM (inactive) | > 100 µM (inactive) | 11.6 µM (inactive) | > 100 µM (inactive) | 41.4 µM (inactive) | 33.3 µM (inactive) | > 100 µM (inactive) | 49.4 µM (inactive) | > 100 µM (inactive)
5 | COc1ccc(/C=C2\N=C(c3ccccc3)N(NC3=NC(=O)CC(=O)N3)C2=O)cc1 | > 100 µM (inactive) | > 100 µM (inactive) | 39.2 µM (inactive) | > 100 µM (inactive) | > 100 | > 100 µM (inactive) | > 100 µM (inactive) |  | > 100 µM (inactive) | 20.4 µM (inactive) | > 100 µM (inactive) | > 100 µM (inactive) | > 100 µM (inactive) | > 100 µM (inactive) | > 100 µM (inactive) | > 100 µM (inactive) | > 100 µM (inactive) | > 100 µM (inactive) | > 100 µM (inactive) | > 100 µM (inactive)
